Experimental data published in PMC8329502 (Toxicology Reports, 2021).

Target: T1, cytochrome P450 1A2 (CYP1A2) (Homo sapiens, UniProt P05177)
T1 sequence (P05177 2-516): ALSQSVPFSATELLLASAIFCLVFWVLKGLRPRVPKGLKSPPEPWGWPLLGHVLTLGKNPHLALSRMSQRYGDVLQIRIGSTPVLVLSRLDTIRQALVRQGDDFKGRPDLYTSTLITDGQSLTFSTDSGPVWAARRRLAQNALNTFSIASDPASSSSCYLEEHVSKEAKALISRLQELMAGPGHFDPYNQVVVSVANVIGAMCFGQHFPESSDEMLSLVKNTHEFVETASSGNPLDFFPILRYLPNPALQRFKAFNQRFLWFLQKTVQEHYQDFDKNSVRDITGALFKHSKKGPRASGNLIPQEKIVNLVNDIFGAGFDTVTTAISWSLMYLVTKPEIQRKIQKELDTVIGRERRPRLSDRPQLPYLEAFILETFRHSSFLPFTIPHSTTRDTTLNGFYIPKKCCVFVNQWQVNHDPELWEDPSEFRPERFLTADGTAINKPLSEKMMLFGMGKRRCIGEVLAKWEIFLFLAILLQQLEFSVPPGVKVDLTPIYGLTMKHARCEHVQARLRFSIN
Assay: […]-caffeine 3-N-demethylation in 50-donor pooled human liver microsomes
Format: biochemical

| Compound | IC50 [nM] |
| --- | --- |
| COc1c2ccoc2cc2oc(=O)ccc12 [5-MOP, 5-methoxypsoralen] | 68.8 |
| COc1c2ccoc2c(OC)c2oc(=O)ccc12 [ISOP, isopimpinellin] | 277 |
